Results taken from patent US20250017938A1, “COMBINATION THERAPIES OF FASN INHIBITORS WITH THYROID HORMONE RECEPTOR AGONISTS” (Sagimet Biosciences Inc., priority 2023, published 2025).
“Also recorded” adds a separate entry of the source.

Columns and labels:
Type in all cases: cell-based
[1] = test system: 3D InSight Human Liver Microtissues; assay: 3D InSight Human Liver Microtissues, DNL condition, intratissue triglyceride content (7 days)
Procedure: After a 7 day treatment with dosings at days 0, 2 and 5, intratissue lipid accumulation was measured using Triglyceride-Glo™ Assay (Promega). In addition, metabolic activity of the treated Liver Microtissues (MTs) and cytotoxicity were assessed by measurement of ATP content at day 7 of treatment (CellTiter-Glo® 2.0 Cell Viability Assay, Promega) and LDH release between days 0-2, days 2-5 and days 5-7 (LDH-Glo™ Cytotoxicity Assay, Promega), respectively. Leftover supernatant collected on treatment days 2, 5 and 7 were stored frozen for further analysis. […] Experimental readout measurements comprised collection and freezing of supernatants for LDH measurement on days 2, 5 and 7. Measurement of LDH released into supernatant was analyzed using an LDH-Glo™ Cytotoxicity Assay (Promega). Measurement of ATP content in single MTs after 7 days of treatment with was analyzed using a Cell Titer Glo™ 2.0 Cell Viability Assay (Promega). Measurement of intratissue triglyceride (TG) content after 7 days of treatment was analyzed using a Triglyceride-Glo™ Assay (Promega). […] Total TG content in MTs at day 7 of treatment was measured with Triglyceride-Glo™ Assay (Promega), according to InSphero AG protocol. The amount of glycerol/MT [pmol/MT] was calculated using linear regression to a standard curve. […]

[2] = test system: 3D InSight Human Liver Microtissues (NASH condition); assay: 3D InSight Liver NASH model, intratissue triglyceride content (10 days)
Procedure: […]. InSphero's 10-day NASH treatment scheme was applied with compound dosing at days 0, 3, 5 and 7 of treatment. […]. At day 5 of treatment, secreted cytokine levels were measured (LUMINEX™), at days 7 and 10 released procollagen 1 was quantified and at day 10 of treatment intratissue triglyceride content was determined. The release of lactate dehydrogenase (LDH) into culture supernatant was measured at days 3, 5, 7 and 10, in order to detect possible cytotoxicity caused by the treatments. After first data evaluation, released procollagen 3 was measured in supernatants of selected day 10 samples. […]
Cells were dosed on days 0, 3, 5 and […]. Experimental readout measurements comprised collection and freezing of supernatants for LDH measurement on days 3, 5, 7 and 10. Measurement of LDH released into supernatant was analyzed using an LDH-Glo™ Cytotoxicity
Assay (Promega). Measurement of intratissue triglyceride (TG) content after 10 days of treatment was analyzed using a Triglyceride-Glo™ Assay (Promega). […] Measurement of IL-6, IL-8, IP-10, MCP-1, MIP-1α and TNF-α content was analyzed using Magnetic Luminex® Performance Assay, Human XL Cytokine Discovery Base Kit (R&D systems).
. Total TG content in MTs at day 10 of treatment was measured with Triglyceride-Glo™ Assay (Promega), according to InSphero AG protocol. […]

[3] = test system: human precision cut liver slices; assay: Precision cut liver slice (PCLS) in vitro human NASH model, soluble outputs (collagen 1α1, IL-6, TIMP-1 ELISA)
Procedure: PCLSs were prepared from resected liver tissue and rested for 24 hours to allow the post-slicing stress period to elapse before experiments began. […] PCLS culture media, including lipids and compounds, was refreshed at 24 hrs intervals. […] PCLSs were prepared from an n=1 individual human liver. The human livers are normal margins of near-to-normal human liver obtained during a surgical resection. Tissue culture supernatant (n=3 or n=4 per group) were collected every 24 hrs and snap frozen for quantification of the soluble outputs described below. At harvest, n=2 PCLSs were harvested for a triglyceride assay, n=2 PCLSs were harvested for frozen sections (Oil Red O staining), n=2 PCLSs were formalin-fixed, paraffin embedded (FFPE) for immunohistochemistry, and n=2 PCLSs were snap frozen for RNA isolation (Table 4, Groups 1˜4 only).

[4] = test system: primary isolated human stellate cells (HSC); assay: Primary human hepatic stellate cells stimulated with TGF-β1, total collagen (in vitro fibrosis study)
Procedure: Primary isolated human stellate cells (HSC) were investigated in the study. The cells were maintained under standard culture conditions and in established culture medium.
Study Model: Viability screening and in vitro fibrosis study, 24 well plate format, 4 day stimulation with recombinant human TGF-β1. In this study, 2.5 and 10 ng/ml TGF-β1 were used.
Primary HSCs were seeded on t=day-1 and cultured in 24 well plates for 24 hours. […] Cells were incubated for an additional 96 hours (t=day 4). Conditioned medium samples were collected for expression analysis of secreted proteins. All wells were used for an alamarBlue assay to assess cell viability/metabolic activity. A separate plate was used at t=day 0 as reference for the alamarBlue assay. Next, the cell-matrix fraction was collected for measurement of total collagen and cell protein levels.
Both test compounds were dissolved in DMSO. Working concentrations were prepared from a stock concentration that is 1000-fold that of the highest working concentration. All controls were incubated with the same DMSO concentration as that present in the highest working concentration.
Total Collagen assay was performed according to the manufacturer's protocol.
Total Protein assay, for use with the Total Collagen assay, was performed according to the manufacturer's protocol. Protein levels were used to correct for differences in cell contents between samples.
Significance of differences between the groups was calculated either parametrically or non-parametrically, using the computer program SPSS. For nonparametric calculations, a Kruskal-Wallis test for several independent samples was used, followed by a Mann-Whitney U-test for independent samples. For parametric calculations, a One-way ANOVA for multiple comparisons was used, followed by Dunnett or Bonferroni's correction.

SMILES: Cc1nc(-c2cc(C(=O)N3CCC(c4ccc(C#N)cc4)CC3)c(C)cc2C2CCC2)n[nH]1 [Compound 001-152, 4-(1-(4-Cyclobutyl-2-methyl-5-(5-methyl-4H-1,2,4-triazol-3-yl)benzoyl)piperidin-4-yl)benzonitrile]
- intratissue Triglyceride content [1]: reduces cellular triglycerides
- intratissue Triglyceride content (NASH-induced) [2]: reduced cellular triglycerides
- fibrosis marker collagen 1α1 in culture supernatant [3]: dose and time-dependent decrease
- collagen production [4]: inhibits collagen production directly; also recorded: inhibits as effectively as positive control Alk5 inhibitor
